Laboratory results reported in ChEMBL document CHEMBL4715821, “Discovery of 4-ethoxy-7H-pyrrolo[2,3-d]pyrimidin-2-amines as potent, selective and orally bioavailable LRRK2 inhibitors” (Bioorg Med Chem Lett, 2018).

Key:
[1] = Dose normalized AUC (0 to t) in Han-Wistar rat blood at 10 mg/kg, po measured up to 7 hrs by UPLC-MS/MS analysis; type: ADME, organism-based; settings: in vivo
[2] = In vivo inhibition of LRRK2 in Han-Wistar rat assessed as reduction in Ser935 phosphorylation in spleen at 10 to 100 mg/kg, po by Western blot analysis; type: functional; set-up: scale not given: the % may be the effect or the level left; settings: dose 10-100 mg/kg
[3] = molecular target: Activin receptor type-1B (Homo sapiens) (UniProt P36896); assay: Inhibition of wild-type human ACVR1B (S187 to I505 residues) expressed in bacterial expression system assessed as residual activity at 1 uM by Kinomescan method relative to control
[4] = molecular target: Serine/threonine-protein kinase BRSK2 (Homo sapiens) (UniProt Q8IWQ3); assay: Inhibition of wild-type human full length BRSK2 (M1 to L674 residues) expressed in bacterial expression system assessed as residual activity at 1 uM by Kinomescan method relative to control
[5] = molecular target: Cyclin-dependent kinase 1/cyclin B1 (Homo sapiens) (UniProt P06493+P14635); assay: Inhibition of wild-type human full length CDK1 (M1 to M297 residues)/Cyclin B expressed in mammalian expression system assessed as residual activity at 1 uM by Kinomescan method relative to control
[6] = molecular target: Dual specificity tyrosine-phosphorylation-regulated kinase 2 (Homo sapiens) (UniProt Q92630); assay: Inhibition of wild-type human full length DYRK2 (M1 to S528 residues) expressed in mammalian expression system assessed as residual activity at 1 uM by Kinomescan method relative to control
[7] = molecular target: Tyrosine-protein kinase Fer (Homo sapiens) (UniProt P16591); assay: Inhibition of wild-type human partial length FER (S542 to T822 residues) expressed in bacterial expression system assessed as residual activity at 1 uM by Kinomescan method relative to control
[8] = molecular target: Mitogen-activated protein kinase kinase kinase kinase 2 (Homo sapiens) (UniProt Q12851); assay: Inhibition of wild-type human partial length MAP4K2 (M1 to G318 residues) expressed in mammalian expression system assessed as residual activity at 1 uM by Kinomescan method relative to control
[9] = molecular target: Mitogen-activated protein kinase kinase kinase kinase 4 (Homo sapiens) (UniProt O95819); assay: Inhibition of wild-type human partial length MAP4K4 (M1 to R310 residues) expressed in bacterial expression system assessed as residual activity at 1 uM by Kinomescan method relative to control
[10] = molecular target: Inhibitor of nuclear factor kappa-B kinase subunit alpha (Homo sapiens) (UniProt O15111); assay: Inhibition of wild-type human full length IKK-alpha (M1 to E745 residues) expressed in mammalian expression system assessed as residual activity at 1 uM by Kinomescan method relative to control
[11] = molecular target: Tyrosine-protein kinase JAK1 (Homo sapiens) (UniProt P23458); assay: Inhibition of wild-type human partial length JAK1 JH2 pseudokinase domain (R537 to D855 residues) expressed in mammalian expression system assessed as residual activity at 1 uM by Kinomescan method relative to control
[12] = molecular target: Serine/threonine-protein kinase MRCK alpha (Homo sapiens) (UniProt Q5VT25); assay: Inhibition of wild-type human partial length MRCKA (L57 to V418 residues) expressed in bacterial expression system assessed as residual activity at 1 uM by Kinomescan method relative to control
[13] = molecular target: MAP kinase-activated protein kinase 3 (Homo sapiens) (UniProt Q16644); assay: Inhibition of human MAPKAPK3 assessed as residual activity at 1 uM by Kinomescan method relative to control
[14] = molecular target: MAP/microtubule affinity-regulating kinase 4 (Homo sapiens) (UniProt Q96L34); assay: Inhibition of wild-type human partial length MARK4 (K29 to G340 residues) expressed in bacterial expression system assessed as residual activity at 1 uM by Kinomescan method relative to control
[15] = molecular target: Serine/threonine-protein kinase NLK (Homo sapiens) (UniProt Q9UBE8); assay: Inhibition of wild-type human full length NLK (M13 to E527 residues) expressed in bacterial expression system assessed as residual activity at 1 uM by Kinomescan method relative to control
[16] = molecular target: Ribosomal protein S6 kinase beta-2 (Homo sapiens) (UniProt Q9UBS0); assay: Inhibition of RPS6KB2 (unknown origin) assessed as residual activity at 1 uM by Kinomescan method relative to control
[17] = molecular target: Serine/threonine-protein kinase PAK 2 (Homo sapiens) (UniProt Q13177); assay: Inhibition of wild-type human partial length PAK2 (P151 to R525 residues) expressed in bacterial expression system assessed as residual activity at 1 uM by Kinomescan method relative to control
[18] = molecular target: Serine/threonine-protein kinase PAK 3 (Homo sapiens) (UniProt O75914); assay: Inhibition of wild-type human full length PAK3 (M1 to R544 residues) expressed in bacterial expression system assessed as residual activity at 1 uM by Kinomescan method relative to control
[19] = molecular target: cGMP-dependent protein kinase 2 (Homo sapiens) (UniProt Q13237); assay: Inhibition of wild-type human partial length PRKG2 (S422 to F762 residues) expressed in mammalian expression system assessed as residual activity at 1 uM by Kinomescan method relative to control
[20] = molecular target: Receptor-interacting serine/threonine-protein kinase 2 (Homo sapiens) (UniProt O43353); assay: Inhibition of wild-type human partial length RIPK2 (M1 to K310 residues) expressed in bacterial expression system assessed as residual activity at 1 uM by Kinomescan method relative to control
[21] = molecular target: Rho-associated protein kinase 2 (Homo sapiens) (UniProt O75116); assay: Inhibition of wild-type human partial length ROCK2 (M1 to T431 residues) expressed in mammalian expression system assessed as residual activity at 1 uM by Kinomescan method relative to control
[22] = molecular target: Serine/threonine-protein kinase TAO2 (Homo sapiens) (UniProt Q9UL54); assay: Inhibition of wild-type human partial length TAOK2 (M1 to A320 residues) expressed in mammalian expression system assessed as residual activity at 1 uM by Kinomescan method relative to control
[23] = molecular target: NT-3 growth factor receptor (Homo sapiens) (UniProt Q16288); assay: Inhibition of wild-type human partial length TRKC (Q531 to G825 residues) expressed in mammalian expression system assessed as residual activity at 1 uM by Kinomescan method relative to control
[24] = molecular target: Epithelial discoidin domain-containing receptor 1 (Homo sapiens) (UniProt Q08345); assay: Inhibition of wild-type human partial length DDR1 (R565 to V876 residues) expressed in bacterial expression system assessed as residual activity at 1 uM by Kinomescan method relative to control
[25] = molecular target: Serine/threonine-protein kinase N3 (Homo sapiens) (UniProt Q6P5Z2); assay: Inhibition of PKN3 (unknown origin) assessed as residual activity at 1 uM by Kinomescan method relative to control
[26] = molecular target: Dual specificity testis-specific protein kinase 1 (Homo sapiens) (UniProt Q15569); assay: Inhibition of wild-type human full length TESK1 (R37 to S626 residues) expressed in bacterial expression system assessed as residual activity at 1 uM by Kinomescan method relative to control

Structure (SMILES): CCOc1nc(Nc2ccc(C(=O)N3CCOCC3)cc2OC)nc2[nH]ccc12
- AUCt/dose [1]: 1034 ng·h/g/mg/kg
- Activity [2]: 100%
- Activity [3]: 84.5%
- Activity [4]: 88.8%
- Activity [5]: 92.2%
- Activity [6]: 81.3%
- Activity [7]: 36.5%
- Activity [8]: 90.2%
- Activity [9]: 95.6%
- Activity [10]: 85.3%
- Activity [11]: 97.3%
- Activity [12]: 99.4%
- Activity [13]: 101%
- Activity [14]: 101%
- Activity [15]: 94.5%
- Activity [16]: 98.9%
- Activity [17]: 95.3%
- Activity [18]: 96.4%
- Activity [19]: 104%
- Activity [20]: 91.7%
- Activity [21]: 91.3%
- Activity [22]: 103%
- Activity [23]: 97.7%
- Activity [24]: 102%
- Activity [25]: 96.5%
- Activity [26]: 104%
